In publication PMC4854934, “Rapid Screening of Antimicrobial Synthetic Peptides” (International Journal of Peptide Research and Therapeutics, 2015):
Converted amounts (≈) assume the structure as drawn. “Also recorded” adds a separate entry of the source. Counter-ions that a name gives are not always drawn. Like-named read-outs stand apart in the source and are kept apart here. Where a SMILES comes first, the peptide text is derived from it. Bridges are numbered along the chain shown (N, C = ends). Roman numbers before positions name the chains, in order. Where no end group is shown, it is not given here. The star is where a group is joined. Palmitoyl = CCCCCCCCCCCCCCCC(=O)*; Myristoyl = CCCCCCCCCCCCCC(=O)*; Lauroyl = CCCCCCCCCCCC(=O)*

Legend:
Format in all cases: cell-based
[1] = test system: Staphylococcus aureus ATCC 25923
Procedure: (§1) Minimum inhibitory concentration (MIC) was determined by broth microdilution method on 96-well polypropylene plates, according to Clinical and Laboratory Standards Institute (CLSI) recommendations. All tests were conducted in triplicate and involved six reference strains of the following bacteria: Bacillus subtilis ATCC 6633, Escherichia coli ATCC 25922, Klebsiella pneumoniae ATCC 200603, Pseudomonas aeruginosa ATCC 9027, Staphylococcus aureus ATCC 25923, Staphylococcus epidermidis ATCC 14490 and two reference strains of fungi: Candida albicans ATCC 10231 and Candida tropicalis PCM 2681. Concentrations of applied peptides ranged from 512 to 1 µg/mL. Two microbiological media were used: Mueller–Hinton Broth for bacteria and Sabouraud Dextrose Broth for fungi. Incubation took 18 h at 37 °C and 48 h at 27 °C respectively. MIC was taken as the lowest concentration of a peptide where the visible growth of microbes was inhibited.

[2] = test system: Klebsiella pneumoniae ATCC 200603
Procedure: as §1

[3] = test system: Pseudomonas aeruginosa ATCC 9027
Procedure: as §1

[4] = test system: Staphylococcus epidermidis ATCC 14490
Procedure: as §1

[5] = test system: Bacillus subtilis ATCC 6633
Procedure: as §1

[6] = test system: Candida tropicalis PCM 2681
Procedure: as §1

[7] = test system: Escherichia coli ATCC 25922
Procedure: as §1

[8] = test system: Candida albicans ATCC 10231
Procedure: as §1

[9] = test system: all microorganisms tested; assay: TLC direct bioautography (TLC-DB) with resazurin; conditions: crude peptide, bacteria 37 °C 5 h, fungi 27 °C 7 h, resazurin 4 mg/mL (0.1 % Triton X-100); for TLC-DB without separation: appearance of spot after resazurin: 10 µL of 5 mg/mL applied directly on TLC plate, no development; for TLC-DB with separation: zones after resazurin: 4 µL of 5 mg/mL, n-butanol/acetone/acetic acid/5 % ammonia/water 4.5:1.5:1:1:2
Procedure: Direct bioautography assays to choose the most suitable and efficient stationary phase were performed on the following TLC plates: TLC Silica gel 60 RP-18 F254S (Merck), HPTLC-Platten Nano-SIL 20 UV254 (Macherey–Nagel), HPTLC Nano-ADAMANT UV254 (Macherey–Nagel) and TLC Aluminium oxide 60 F254 (Merck). The plates were sealed separately and autoclaved at 121 °C for 15 min. Peptide samples were dissolved in the solution of methanol and distilled water (75:25). 4 μL of each sample (5 mg/mL) was applied on the TLC plate. Separation was performed using a mobile phase consisting of n-butanol, acetone, acetic acid, 5 % ammonia and distilled water (4.5:1.5:1:1:2 v/v/v/v/v). Moreover, samples without separation were also investigated. In this case 10 µL of each sample was applied directly on the TLC plate and dried. All processes were performed under sterile conditions in the laminar flow cabinet. Microbiological assays were conducted using fivefold dilution of overnight culture of bacteria and a 48-h culture of fungi. After evaporation of eluents, TLC plates were sterilized under UV for 15 min and dipped into previously prepared inoculums of microorganisms for 20 s. Subsequently they were placed in a sterile Petri dish and incubated—bacteria at 37 °C for 5 h and fungi at 27 °C for 7 h. To visualize the growth inhibition zones, the plates were sprayed with 4 mg/mL (0.1 % Triton X-100) of a cell viability reagent, resazurin salt solution (Sigma-Aldrich).
To determine the usefulness of the TLC layer material, preliminary separation experiments were carried out. […] RP-18 layer’s stability was affected by TLC-bioautography procedures, resulting in material disruption. On the other hand, aluminum oxide layer was stable enough, however it gave low quality separation. Therefore, Nano-Sil and Nano-ADAMANT layers were chosen as the most suitable for TLC-DB of synthetic antimicrobial peptides. Mobile phase consisting of n-butanol, acetone, acetic acid, 5 % ammonia and distilled water (4.5:1.5:1:1:2 v/v/v/v/v) provided the best separation of tested compounds. Moreover, the influence of TFA content among crude peptides was also investigated. In this case all tested compounds were lyophilized from 0.1 mM HCl for three times before application on TLC plate in order to exchange the TFA to chloride counter ion. Nevertheless, the obtained results were the same. Assays with (Fig. 1) and without separation (Fig. 2) were performed simultaneously. Growing microorganisms that adhered to the surface of the TLC plate reduced the dye to pink resorufin. […] The Rf values of non-viable cell area were the same for purified compounds.

[10] = test system: all the tested species of bacteria and fungi; assay: Broth microdilution, summary over all strains; conditions: summary of Tables 1, 2
Procedure: as §1

[11] = broth microdilution, 96-well polypropylene plates, Mueller-Hinton Broth, 18 h at 37 °C, peptide 512 to 1 µg/mL, triplicate, visible growth
[12] = broth microdilution, 96-well polypropylene plates, Sabouraud Dextrose Broth, 48 h at 27 °C, peptide 512 to 1 µg/mL, triplicate, visible growth

Compound	MIC against S. aureus ATCC 25923 ([1]; ATCC 25923, 18 h)	MIC against K. pneumoniae ATCC 200603 ([2]; ATCC 200603, 18 h)	MIC against P. aeruginosa ATCC 9027 ([3]; ATCC 9027, 18 h)	MIC against S. epidermidis ATCC 14490 ([4]; ATCC 14490, 18 h)	MIC against B. subtilis ATCC 6633 ([5]; ATCC 6633, 18 h)	MIC against C. tropicalis PCM 2681 ([6]; PCM 2681, 48 h)	MIC against E. coli ATCC 25922 ([7]; ATCC 25922, 18 h)	MIC against C. albicans ATCC 10231 ([8]; ATCC 10231, 48 h)	TLC-DB without separation: appearance of spot after resazurin [9]	MIC against S. aureus ATCC 25923 [1, 11]	MIC against K. pneumoniae ATCC 200603 [2, 11]	MIC against P. aeruginosa ATCC 9027 [3, 11]	MIC against S. epidermidis ATCC 14490 [4, 11]	MIC against B. subtilis ATCC 6633 [5, 11]	MIC against C. tropicalis PCM 2681 [6, 12]	MIC against E. coli ATCC 25922 [7, 11]	MIC against C. albicans ATCC 10231 [8, 12]	antimicrobial activity among all the tested species of bacteria and fungi [10]	TLC-DB with separation: zones after resazurin [9]
GLFDVIKKVASVIGGL-NH2 [Citropin 1.1]	16 µg/mL	128 µg/mL	256 µg/mL	8 µg/mL	4 µg/mL	128 µg/mL	32 µg/mL	128 µg/mL											
CCCCCCCCCCCCCCCC(=O)N[C@@H](CCCCN)C(=O)N[C@@H](CCCCN)C(N)=O [Pal-KK-NH2]	8 µg/mL (≈ 15.6 µM)	16 µg/mL (≈ 31.3 µM)	128 µg/mL (≈ 250 µM)	4 µg/mL (≈ 7.82 µM)	2 µg/mL (≈ 3.91 µM)	128 µg/mL (≈ 250 µM)	8 µg/mL (≈ 15.6 µM)	128 µg/mL (≈ 250 µM)	did not reduce resazurin										
CCCCCCCCCCCCCCCC(=O)N[C@@H](CCCCN)C(=O)NCC(=O)N[C@@H](CCCCN)C(N)=O [Pal-KGK-NH2] (Palmitoyl-Lys-Gly-Lys-NH2)	16 µg/mL (≈ 28.1 µM)	16 µg/mL (≈ 28.1 µM)	64 µg/mL (≈ 113 µM)	4 µg/mL (≈ 7.03 µM)	2 µg/mL (≈ 3.52 µM)	>512 µg/mL	8 µg/mL (≈ 14.1 µM)	64 µg/mL (≈ 113 µM)	did not reduce resazurin										
KWKLFKKIGAVLKVL-NH2 [CAMEL]										4 µg/mL	2 µg/mL	256 µg/mL	1 µg/mL	2 µg/mL	256 µg/mL	2 µg/mL	128 µg/mL		
CC[C@H](C)[C@H](N)C(=O)N[C@@H](CS)C(=O)N[C@@H](Cc1c[nH]cn1)C(=O)N[C@@H](Cc1c[nH]cn1)C(=O)N[C@@H](CS)C(=O)N[C@H](C(=O)O)[C@@H](C)CC [ICHHCI-OH] (H-ICHHCI-OH; N-terminus assumed)									soft white inhibition zone	>512 µg/mL	>512 µg/mL	>512 µg/mL	>512 µg/mL	>512 µg/mL	>512 µg/mL	>512 µg/mL	>512 µg/mL	no antimicrobial activity	white reduction zone; also recorded: white inhibition zone
CCCCCCCCCCCCCC(=O)N[C@@H](CCCCN)C(=O)NCC(=O)N[C@@H](CCCCN)C(N)=O [Mir-KGK-NH2] (Myristoyl-Lys-Gly-Lys-NH2)	16 µg/mL (≈ 29.6 µM)	128 µg/mL (≈ 237 µM)	>512 µg/mL	4 µg/mL (≈ 7.4 µM)	2 µg/mL (≈ 3.7 µM)	256 µg/mL (≈ 473 µM)	64 µg/mL (≈ 118 µM)	128 µg/mL (≈ 237 µM)	did not reduce resazurin										
QQRFEWEFEQQ-NH2 [p11]										>512 µg/mL	>512 µg/mL	>512 µg/mL	>512 µg/mL	>512 µg/mL	>512 µg/mL	>512 µg/mL	>512 µg/mL		
CCCCCCCCCCCC(=O)N[C@@H](CSSC[C@H](NC(=O)CCCCCCCCCCC)C(=O)N[C@@H](CCCCN)C(=O)N[C@@H](CCCCN)C(N)=O)C(=O)N[C@@H](CCCCN)C(=O)N[C@@H](CCCCN)C(N)=O [Laur-CKK-NH2 dimer] (I: Lauroyl-Cys-Lys-Lys-NH2 / II: Lauroyl-Cys-Lys-Lys-NH2; disulfide I:1-II:1)	8 µg/mL (≈ 7.17 µM)	8 µg/mL (≈ 7.17 µM)	512 µg/mL (≈ 459 µM)	2 µg/mL (≈ 1.79 µM)	2 µg/mL (≈ 1.79 µM)	>512 µg/mL	8 µg/mL (≈ 7.17 µM)	512 µg/mL (≈ 459 µM)	did not reduce resazurin										two blue spots; also recorded: two inhibition zones
CCCCCCCCCCCCCCCC(=O)N[C@@H](CCCCNC(=O)C(F)(F)F)C(=O)N[C@@H](CCCCNC(=O)C(F)(F)F)C(N)=O [Pal-K(TFA)K(TFA)-NH2]	>512 µg/mL	>512 µg/mL	>512 µg/mL	>512 µg/mL	>512 µg/mL	>512 µg/mL	>512 µg/mL	>512 µg/mL										no antimicrobial activity	
